Measured values as given in ChEMBL document CHEMBL1201862, “PubChem BioAssay data set” (2004).
Active and inactive are the calls of the source.

Legend:
[1] = biological target: T1, High affinity choline transporter 1 (Homo sapiens, UniProt Q9GZV3); assay: human choline transporter blockers, potency – cell-based, 10-point CRC, membrane potential dye, dose response (AID 588401); type: functional;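 note: membrane potential dye fluorescence of choline-evoked depolarization via CHT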
T1 sequence (Q9GZV3 whole entry): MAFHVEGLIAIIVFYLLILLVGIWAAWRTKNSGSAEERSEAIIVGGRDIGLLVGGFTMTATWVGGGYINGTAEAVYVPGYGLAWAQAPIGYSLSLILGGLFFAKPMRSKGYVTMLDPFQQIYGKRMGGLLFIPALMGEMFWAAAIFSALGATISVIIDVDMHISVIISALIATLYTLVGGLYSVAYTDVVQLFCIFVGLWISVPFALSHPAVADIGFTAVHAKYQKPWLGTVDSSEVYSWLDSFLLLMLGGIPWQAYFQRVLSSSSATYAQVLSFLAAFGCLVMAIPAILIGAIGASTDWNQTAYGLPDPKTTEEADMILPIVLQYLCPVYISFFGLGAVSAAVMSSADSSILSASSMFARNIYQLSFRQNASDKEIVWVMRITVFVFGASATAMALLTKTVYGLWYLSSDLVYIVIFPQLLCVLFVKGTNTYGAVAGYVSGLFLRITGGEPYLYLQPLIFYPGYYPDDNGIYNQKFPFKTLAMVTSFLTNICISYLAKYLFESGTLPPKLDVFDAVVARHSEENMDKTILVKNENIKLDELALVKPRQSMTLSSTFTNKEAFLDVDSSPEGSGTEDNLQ

[2] = biological target: T1, High affinity choline transporter 1; assay: human choline transporter blockers, potency – cell-based, 5-point CRC, membrane potential dye, dose response (AID 504840); type: functional
[3] = A cytotoxicity screen of small molecule inhibitors of the PhoP region in Salmonella typhi identified in the primary screen. [Related pubchem assays: 1850, 1864, 1985 ]; type: functional
HEK293 = assay: EBV LMP1 TES2 canonical NF-kB signalling blockers – cell-based, HEK293, luciferase, cherry-pick, dose response (AID 588343); type: functional; conditions: Homo sapiens
Beta-galactosidase = Beta-galactosidase (Escherichia coli, UniProt Q8VNN2); assay: detection-enzyme interference by beta-gal modulators – biochemical, E. coli enzyme, set 3, artefact control for CCR6 antagonist project, dose response (AID 504712); type: functional
Sequence of Beta-galactosidase (Q8VNN2 whole entry): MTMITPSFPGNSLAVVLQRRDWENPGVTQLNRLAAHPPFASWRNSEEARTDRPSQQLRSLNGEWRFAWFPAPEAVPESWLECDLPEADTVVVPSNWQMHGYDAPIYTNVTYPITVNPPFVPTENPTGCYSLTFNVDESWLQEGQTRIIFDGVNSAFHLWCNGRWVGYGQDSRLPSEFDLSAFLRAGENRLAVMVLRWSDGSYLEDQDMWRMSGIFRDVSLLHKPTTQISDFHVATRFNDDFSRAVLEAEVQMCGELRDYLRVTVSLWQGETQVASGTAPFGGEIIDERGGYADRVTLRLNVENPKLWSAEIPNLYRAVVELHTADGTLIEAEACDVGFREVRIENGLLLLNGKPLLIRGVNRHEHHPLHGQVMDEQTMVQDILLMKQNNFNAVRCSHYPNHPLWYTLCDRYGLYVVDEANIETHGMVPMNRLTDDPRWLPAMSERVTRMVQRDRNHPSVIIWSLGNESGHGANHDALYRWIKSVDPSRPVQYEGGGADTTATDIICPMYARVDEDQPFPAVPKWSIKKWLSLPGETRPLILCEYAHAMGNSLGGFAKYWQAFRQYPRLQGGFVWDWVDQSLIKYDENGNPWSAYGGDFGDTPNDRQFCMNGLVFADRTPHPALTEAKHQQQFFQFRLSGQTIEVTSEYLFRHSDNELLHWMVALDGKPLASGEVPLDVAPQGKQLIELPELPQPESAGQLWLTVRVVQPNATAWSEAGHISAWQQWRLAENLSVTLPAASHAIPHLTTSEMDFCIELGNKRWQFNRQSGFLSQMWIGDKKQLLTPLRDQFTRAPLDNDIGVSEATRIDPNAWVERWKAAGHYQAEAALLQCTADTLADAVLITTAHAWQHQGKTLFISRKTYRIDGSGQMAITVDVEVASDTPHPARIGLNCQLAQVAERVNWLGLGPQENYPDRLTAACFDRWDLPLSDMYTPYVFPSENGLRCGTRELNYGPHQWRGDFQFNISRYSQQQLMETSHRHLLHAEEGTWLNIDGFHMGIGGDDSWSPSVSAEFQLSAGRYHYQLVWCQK

[4] = biological target: T2, C-C chemokine receptor type 6 (Homo sapiens, UniProt P51684); assay: antagonism of CCR6 beta-arrestin recruitment – cell-based, luminescent beta-arrestin readout, dose response (AID 504728); type: functional
T2 sequence (P51684 whole entry): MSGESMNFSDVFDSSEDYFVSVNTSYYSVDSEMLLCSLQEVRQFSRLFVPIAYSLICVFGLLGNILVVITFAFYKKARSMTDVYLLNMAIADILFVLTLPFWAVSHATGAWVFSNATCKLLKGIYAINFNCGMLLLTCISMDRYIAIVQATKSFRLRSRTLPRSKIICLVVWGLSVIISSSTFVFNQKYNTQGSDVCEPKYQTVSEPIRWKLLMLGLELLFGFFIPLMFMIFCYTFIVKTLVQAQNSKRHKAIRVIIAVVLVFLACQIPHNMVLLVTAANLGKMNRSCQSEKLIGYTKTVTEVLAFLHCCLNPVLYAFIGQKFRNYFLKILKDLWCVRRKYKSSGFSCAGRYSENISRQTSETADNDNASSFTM

Melanocortin receptor 4 = Melanocortin receptor 4 (Homo sapiens, UniProt P32245); assay: inhibitors of MC4R cAMP signaling – cell-based, TR-FRET, biased antagonists, dose response (AID 602298); type: functional;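 note: antagonist potency against agonist-stimulated cAMP production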
Sequence of Melanocortin receptor 4 (P32245 whole entry): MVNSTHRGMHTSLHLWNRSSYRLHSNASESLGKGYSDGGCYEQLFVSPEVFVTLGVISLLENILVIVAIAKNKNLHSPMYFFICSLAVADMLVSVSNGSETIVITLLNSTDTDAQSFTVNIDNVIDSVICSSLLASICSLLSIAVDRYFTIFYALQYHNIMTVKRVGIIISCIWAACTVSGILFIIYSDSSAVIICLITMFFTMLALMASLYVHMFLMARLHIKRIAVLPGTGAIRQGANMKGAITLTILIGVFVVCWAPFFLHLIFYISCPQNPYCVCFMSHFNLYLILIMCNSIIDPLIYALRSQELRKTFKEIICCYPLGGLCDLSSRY

[5] = cAMP pathway inhibition in counterscreen cell line – TR-FRET cAMP detection, counter-screen for MC4R biased antagonist project, dose response (AID 602305); type: functional, cell-based;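 note: U2OS cells stimulated with forskolin near its EC80 as the cAMP inducer; potency is for inhibition of forskolin-stimulated cAMP signaling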
Cysteine protease ATG4B = biological target: T3, Cysteine protease ATG4B (Homo sapiens, UniProt Q9Y4P1); type: functional;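 note: Fluorescence-based dose-response confirmation assay measuring inhibition of ATG4B activity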
T3 sequence (Q9Y4P1 whole entry): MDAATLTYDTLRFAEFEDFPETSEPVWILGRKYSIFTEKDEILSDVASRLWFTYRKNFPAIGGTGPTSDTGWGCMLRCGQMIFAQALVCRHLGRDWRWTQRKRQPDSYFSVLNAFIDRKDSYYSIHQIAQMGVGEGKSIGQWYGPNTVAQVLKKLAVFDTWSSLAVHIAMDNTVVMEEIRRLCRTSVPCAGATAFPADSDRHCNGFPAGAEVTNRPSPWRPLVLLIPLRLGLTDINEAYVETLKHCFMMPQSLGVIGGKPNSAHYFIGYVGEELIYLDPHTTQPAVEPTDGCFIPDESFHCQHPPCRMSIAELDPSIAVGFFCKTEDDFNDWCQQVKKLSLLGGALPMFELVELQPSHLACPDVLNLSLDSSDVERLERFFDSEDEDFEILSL

Phospholipase A2 = Phospholipase A2 (Homo sapiens, UniProt P04054); type: functional;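 note: confirmatory dose-response counterscreen on phospholipase A2, testing hits that came from an ultra-high-throughput screen for ATG4B inhibitors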
Sequence of Phospholipase A2 (P04054 whole entry): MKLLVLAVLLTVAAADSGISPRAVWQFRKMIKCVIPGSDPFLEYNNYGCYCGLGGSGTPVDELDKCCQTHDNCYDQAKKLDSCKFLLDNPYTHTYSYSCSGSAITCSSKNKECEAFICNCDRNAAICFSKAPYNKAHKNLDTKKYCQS

Genome polyprotein = Genome polyprotein (dengue virus type 2, UniProt P29990); assay: flavivirus cap methylation enzyme inhibition – biochemical, confirmation dose response, primary screen (AID 588689); type: functional
Sequence of Genome polyprotein (P29990 2492-3391 limits assumed): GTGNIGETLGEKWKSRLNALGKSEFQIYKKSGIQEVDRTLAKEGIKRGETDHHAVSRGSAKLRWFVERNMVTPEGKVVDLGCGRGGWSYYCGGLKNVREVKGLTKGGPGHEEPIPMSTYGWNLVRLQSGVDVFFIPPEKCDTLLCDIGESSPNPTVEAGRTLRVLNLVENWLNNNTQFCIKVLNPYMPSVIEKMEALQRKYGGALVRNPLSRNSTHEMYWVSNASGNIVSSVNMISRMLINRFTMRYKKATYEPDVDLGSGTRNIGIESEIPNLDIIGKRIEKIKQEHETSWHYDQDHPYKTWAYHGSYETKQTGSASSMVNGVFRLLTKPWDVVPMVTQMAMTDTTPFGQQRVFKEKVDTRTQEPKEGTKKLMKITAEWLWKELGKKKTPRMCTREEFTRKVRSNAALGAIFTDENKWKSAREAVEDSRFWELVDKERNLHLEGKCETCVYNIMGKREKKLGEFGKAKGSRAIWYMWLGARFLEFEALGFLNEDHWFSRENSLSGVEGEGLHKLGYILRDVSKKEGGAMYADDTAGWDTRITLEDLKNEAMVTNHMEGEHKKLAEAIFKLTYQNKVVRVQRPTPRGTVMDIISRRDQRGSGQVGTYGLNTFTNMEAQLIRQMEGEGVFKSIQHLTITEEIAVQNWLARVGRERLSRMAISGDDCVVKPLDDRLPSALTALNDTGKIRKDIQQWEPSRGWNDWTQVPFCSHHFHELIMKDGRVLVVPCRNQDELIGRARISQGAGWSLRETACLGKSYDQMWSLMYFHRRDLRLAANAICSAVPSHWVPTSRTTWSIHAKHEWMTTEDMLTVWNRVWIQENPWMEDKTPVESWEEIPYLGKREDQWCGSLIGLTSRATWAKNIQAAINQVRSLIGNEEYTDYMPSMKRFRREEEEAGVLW

Hexokinase HKDC1 = biological target: T4, Hexokinase HKDC1 (Homo sapiens, UniProt Q2TB90); assay: inhibition of HKDC1 glucose phosphorylation – biochemical, W721R variant, dose response (AID 504729); type: functional
T4 sequence (Q2TB90 whole entry): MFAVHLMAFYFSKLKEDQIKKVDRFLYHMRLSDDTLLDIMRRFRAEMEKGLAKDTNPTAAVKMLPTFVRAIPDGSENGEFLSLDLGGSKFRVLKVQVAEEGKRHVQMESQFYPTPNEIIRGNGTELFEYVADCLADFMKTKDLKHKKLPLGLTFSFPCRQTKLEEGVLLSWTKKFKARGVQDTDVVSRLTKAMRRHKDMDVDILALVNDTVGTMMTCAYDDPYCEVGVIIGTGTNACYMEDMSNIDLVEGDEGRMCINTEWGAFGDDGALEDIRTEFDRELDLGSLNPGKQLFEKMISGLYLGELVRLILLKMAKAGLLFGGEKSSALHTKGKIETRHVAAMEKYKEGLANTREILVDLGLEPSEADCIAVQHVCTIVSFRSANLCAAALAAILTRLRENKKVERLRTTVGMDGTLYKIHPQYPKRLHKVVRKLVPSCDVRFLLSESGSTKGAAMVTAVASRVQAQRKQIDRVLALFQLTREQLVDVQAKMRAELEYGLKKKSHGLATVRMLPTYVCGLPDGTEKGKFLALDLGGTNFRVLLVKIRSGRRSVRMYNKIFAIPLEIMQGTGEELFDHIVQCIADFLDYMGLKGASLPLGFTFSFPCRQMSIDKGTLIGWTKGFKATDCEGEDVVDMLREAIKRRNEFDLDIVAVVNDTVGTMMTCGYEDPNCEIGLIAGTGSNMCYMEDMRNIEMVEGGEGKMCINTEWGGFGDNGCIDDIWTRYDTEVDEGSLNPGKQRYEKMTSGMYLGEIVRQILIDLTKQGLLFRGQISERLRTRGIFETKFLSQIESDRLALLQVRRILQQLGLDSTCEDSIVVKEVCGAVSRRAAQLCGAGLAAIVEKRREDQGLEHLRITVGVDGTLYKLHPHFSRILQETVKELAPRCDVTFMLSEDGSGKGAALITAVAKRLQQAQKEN

[6] = biological target: T5, Ubiquitin-conjugating enzyme E2 N (Homo sapiens, UniProt P61088); type: functional;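 note: Dose-response confirmation in a TR-FRET assay detecting UBC13-driven polyubiquitin chain formation, inhibition measured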
T5 sequence (P61088 whole entry): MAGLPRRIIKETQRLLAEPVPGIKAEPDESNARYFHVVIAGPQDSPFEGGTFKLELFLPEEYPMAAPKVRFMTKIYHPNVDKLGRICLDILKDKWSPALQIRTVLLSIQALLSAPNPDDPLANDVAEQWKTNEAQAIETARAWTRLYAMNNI

[7] = biological target: Ras and Rab interactor 1/Tyrosine-protein kinase ABL1 (Homo sapiens, UniProt P00519+Q13671); type: functional;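 note: biochemical TR-FRET dose-response test measuring inhibition of binding between Rin1 and Abl proteins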
[8] = biological target: Ribosomal protein S6 kinase beta-1 (Homo sapiens, UniProt P23443); type: functional;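 note: measured as one member of a kinome-wide profiling panel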
[9] = biological target: Proto-oncogene tyrosine-protein kinase ROS (Homo sapiens, UniProt P08922); type: functional;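 note: ROS1 tested as one member of a kinome-wide kinase panel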
Estrogen receptor = biological target: T6, Estrogen receptor (Homo sapiens, UniProt P03372);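 note: potency for inhibiting coactivator peptide recruitment to the receptor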
T6 sequence (P03372 whole entry): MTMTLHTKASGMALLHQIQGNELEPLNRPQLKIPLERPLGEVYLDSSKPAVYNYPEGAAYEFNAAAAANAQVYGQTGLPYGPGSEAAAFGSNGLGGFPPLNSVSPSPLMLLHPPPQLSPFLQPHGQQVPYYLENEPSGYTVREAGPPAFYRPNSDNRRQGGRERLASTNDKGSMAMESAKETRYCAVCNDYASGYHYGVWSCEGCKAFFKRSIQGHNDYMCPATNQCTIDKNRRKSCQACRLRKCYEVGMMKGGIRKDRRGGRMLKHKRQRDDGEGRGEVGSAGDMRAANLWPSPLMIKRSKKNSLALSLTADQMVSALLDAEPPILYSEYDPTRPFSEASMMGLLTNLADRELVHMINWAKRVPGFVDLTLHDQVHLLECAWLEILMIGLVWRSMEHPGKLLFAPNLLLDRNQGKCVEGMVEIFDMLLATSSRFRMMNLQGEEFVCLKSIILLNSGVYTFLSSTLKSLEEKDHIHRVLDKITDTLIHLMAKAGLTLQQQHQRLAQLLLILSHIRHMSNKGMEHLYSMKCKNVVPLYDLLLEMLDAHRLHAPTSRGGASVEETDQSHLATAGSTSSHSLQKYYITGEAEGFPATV

Nonstructural protein 1 = Nonstructural protein 1 (Influenza A virus, UniProt Q194T2); type: functional, Influenza A virus (A/California/07/2009(H1N1))
Estrogen receptor beta [10] = biological target: T7, Estrogen receptor beta (Homo sapiens, UniProt Q92731); assay: blockers of SRC-3 recruitment to ERβ – biochemical, ELISA, streptavidin-HRP readout, orthogonal assay, confirmation (AID 1060)
T7 sequence (Q92731 whole entry): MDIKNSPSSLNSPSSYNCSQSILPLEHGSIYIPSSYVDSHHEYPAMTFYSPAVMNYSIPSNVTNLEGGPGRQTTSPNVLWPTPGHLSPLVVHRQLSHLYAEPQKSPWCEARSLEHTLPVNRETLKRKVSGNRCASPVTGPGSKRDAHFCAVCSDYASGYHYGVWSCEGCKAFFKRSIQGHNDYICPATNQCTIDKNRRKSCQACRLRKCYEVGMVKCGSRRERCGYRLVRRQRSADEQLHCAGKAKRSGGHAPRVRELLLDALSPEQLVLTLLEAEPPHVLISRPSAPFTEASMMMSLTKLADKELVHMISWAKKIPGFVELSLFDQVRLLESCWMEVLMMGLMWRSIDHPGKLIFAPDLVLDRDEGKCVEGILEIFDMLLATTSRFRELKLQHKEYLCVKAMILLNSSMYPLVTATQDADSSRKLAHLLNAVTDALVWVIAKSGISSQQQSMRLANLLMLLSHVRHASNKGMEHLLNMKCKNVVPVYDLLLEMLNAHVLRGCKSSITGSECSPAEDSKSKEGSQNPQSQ

Streptococcus = assay: GAS UMAA2166 growth inhibition – luminescence, BacTiterGlo, counter-screen for streptokinase expression inhibitor project, dose response (AID 1915); type: functional, organism-based;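 note: potency for reduction of bacterial viability or growth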
Estrogen receptor beta [11] = biological target: T7, Estrogen receptor beta
[12] = test system: Streptococcus sp. 'group A'; assay: Streptococcus pyogenes SK(-)GAS viability under kanamycin – luminescence, BacTiterGlo, confirmation, counter-screen for streptokinase expression inhibitor project, dose response (AID 1900); type: functional, organism-based
[13] = biological target: DNA (cytosine-5)-methyltransferase 1 (Homo sapiens, UniProt P26358); assay: inhibition of DNA methylation by DNMT1 – biochemical, fluorescent molecular beacon, confirmation (AID 602386); type: functional
LIM domain kinase 1 = LIM domain kinase 1 (Homo sapiens, UniProt P53667); assay: Navigating the Kinome. Panel member name: LIMK1; type: functional
Sequence of LIM domain kinase 1 (P53667 whole entry, the tested form may be a part): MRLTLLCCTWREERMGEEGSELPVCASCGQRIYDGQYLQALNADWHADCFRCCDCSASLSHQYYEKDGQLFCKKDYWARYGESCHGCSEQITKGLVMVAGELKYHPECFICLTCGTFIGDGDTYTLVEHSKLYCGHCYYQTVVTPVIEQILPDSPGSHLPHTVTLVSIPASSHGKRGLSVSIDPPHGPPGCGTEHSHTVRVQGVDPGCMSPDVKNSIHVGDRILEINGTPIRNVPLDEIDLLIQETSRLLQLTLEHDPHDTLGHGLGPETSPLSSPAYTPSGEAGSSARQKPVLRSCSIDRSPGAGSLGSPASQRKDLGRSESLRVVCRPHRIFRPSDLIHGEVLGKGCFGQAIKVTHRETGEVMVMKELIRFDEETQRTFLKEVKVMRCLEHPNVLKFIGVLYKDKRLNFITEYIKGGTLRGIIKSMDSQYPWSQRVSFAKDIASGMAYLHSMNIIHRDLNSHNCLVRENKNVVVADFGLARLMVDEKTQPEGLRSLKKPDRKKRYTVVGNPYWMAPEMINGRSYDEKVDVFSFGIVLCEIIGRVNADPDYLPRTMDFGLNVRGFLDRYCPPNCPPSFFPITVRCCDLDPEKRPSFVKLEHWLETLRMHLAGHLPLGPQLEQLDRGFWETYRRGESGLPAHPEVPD

[14] = biological target: Vascular endothelial growth factor receptor 1 (Homo sapiens, UniProt P17948); type: functional;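 note: measured within a kinome-wide profiling panel, FLT1 as the panel member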
[15] = biological target: Rho-associated protein kinase 1 (Homo sapiens, UniProt Q13464); type: functional;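 note: measured within a broad kinome-wide panel profiling many kinases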
Sequence of Rho-associated protein kinase 1 (Q13464 whole entry): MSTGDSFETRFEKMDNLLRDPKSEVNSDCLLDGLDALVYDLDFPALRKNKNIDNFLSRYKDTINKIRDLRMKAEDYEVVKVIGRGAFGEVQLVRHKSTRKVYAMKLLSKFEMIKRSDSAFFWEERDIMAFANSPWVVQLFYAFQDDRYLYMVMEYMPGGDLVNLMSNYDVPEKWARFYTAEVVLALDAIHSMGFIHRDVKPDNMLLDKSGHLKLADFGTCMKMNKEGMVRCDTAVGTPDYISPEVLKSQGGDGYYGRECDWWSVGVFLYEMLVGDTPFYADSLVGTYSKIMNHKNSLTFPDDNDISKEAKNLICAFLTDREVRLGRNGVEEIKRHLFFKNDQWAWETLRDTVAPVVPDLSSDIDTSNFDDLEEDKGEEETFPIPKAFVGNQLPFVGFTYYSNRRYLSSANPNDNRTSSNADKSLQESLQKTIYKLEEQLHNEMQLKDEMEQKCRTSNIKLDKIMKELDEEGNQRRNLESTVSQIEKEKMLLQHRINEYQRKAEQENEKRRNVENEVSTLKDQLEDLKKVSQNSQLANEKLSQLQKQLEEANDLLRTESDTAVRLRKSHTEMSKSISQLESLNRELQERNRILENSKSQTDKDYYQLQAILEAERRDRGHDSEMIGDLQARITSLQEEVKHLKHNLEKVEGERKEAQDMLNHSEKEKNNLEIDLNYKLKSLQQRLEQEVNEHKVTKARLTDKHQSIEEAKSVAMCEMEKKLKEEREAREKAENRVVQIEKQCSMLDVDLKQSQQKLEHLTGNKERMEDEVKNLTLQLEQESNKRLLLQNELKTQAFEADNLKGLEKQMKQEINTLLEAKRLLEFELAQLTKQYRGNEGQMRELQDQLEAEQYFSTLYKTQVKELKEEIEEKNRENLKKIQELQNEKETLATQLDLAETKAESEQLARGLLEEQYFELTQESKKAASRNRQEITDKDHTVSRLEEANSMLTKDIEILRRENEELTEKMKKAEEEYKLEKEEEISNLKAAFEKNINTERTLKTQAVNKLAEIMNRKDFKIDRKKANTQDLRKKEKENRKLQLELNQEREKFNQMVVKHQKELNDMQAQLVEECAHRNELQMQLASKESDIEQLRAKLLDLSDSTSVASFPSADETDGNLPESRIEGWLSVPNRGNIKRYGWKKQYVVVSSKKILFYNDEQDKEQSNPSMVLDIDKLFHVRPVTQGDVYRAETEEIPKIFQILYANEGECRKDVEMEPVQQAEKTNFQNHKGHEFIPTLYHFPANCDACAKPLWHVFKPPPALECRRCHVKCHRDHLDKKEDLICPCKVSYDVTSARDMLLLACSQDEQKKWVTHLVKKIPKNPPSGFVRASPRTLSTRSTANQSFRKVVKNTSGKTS

[16] = biological target: Dual specificity protein kinase CLK4 (Homo sapiens, UniProt Q9HAZ1); type: functional
[17] = biological target: Cyclin-dependent kinase 8 (Homo sapiens, UniProt P49336); assay: Navigating the Kinome. Panel member name: CDK8; type: functional
[18] = biological target: Cyclin-dependent kinase 9 (Homo sapiens, UniProt P50750); type: functional;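 note: value from the CDK9 entry of a kinome-spanning kinase panel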

For `O=C(O)CC1=C(Nc2ccccc2)C(=O)N(c2ccccc2)C1c1ccc(Br)cc1` (stereo unspecified), the IC50 [1] was 3.98 µM (active) and the IC50 [2] was 5.55 µM (active).
For `Cc1nnc(SCc2cnc(-c3ccc(C(C)C)cc3)s2)n1C`, the IC50 [1] was 10 µM (active), the EC50 [3] was > 50 µM (active) and the AC50 (HEK293) was 4.43 µM (active). The IC50 [2] was 1.28 µM (active).
With `O=C1/C(=C/c2ccc([N+](=O)[O-])cc2)C=C(c2ccccc2)N1c1ccc(O)cc1` the IC50 (Beta-galactosidase) was > 66.6 µM (inactive), the IC50 [4] was > 66.6 µM (inactive) and the IC50 (Melanocortin receptor 4) was > 64.6 µM (inactive). The IC50 [5] was > 64.6 µM (inactive).
For `COC1=C(Br)C(=O)c2ncccc2C1=O`, the IC50 (Cysteine protease ATG4B) was 3.53 µM (active), the IC50 (Phospholipase A2) was > 80 µM (inactive) and the IC50 (Genome polyprotein) was 3.41 µM (active). For the same molecule, the IC50 (Hexokinase HKDC1) was 3.56 µM (active), the IC50 (Beta-galactosidase) was > 66.6 µM (inactive) and the IC50 [4] was > 66.6 µM (inactive).
With `CC(C)[C@H](CN1CCC[C@H]1CN1C(N)=NC[C@@H]1Cc1ccccc1)N1C[C@@H](Cc2ccccc2)N(CCc2ccc(Cl)c(Cl)c2)C1=N` the IC50 [6] was > 20 µM (inactive), the IC50 (Melanocortin receptor 4) was 7.16 µM (active) and the IC50 [5] was > 64.6 µM (inactive).
For `CN(CCc1ccccc1)C(=O)c1ccc(NC(=O)Cc2ccc(NC(=O)C3CCN(C(=O)C4CCCC4)CC3)cc2)cc1`, the IC50 [7] was 1.38 µM (active).
In the case of `O=C(Cc1cccc2cnccc12)NCc1ccc(Br)cc1`, the Ki [8] is reported as 6.31 µM (active) and the Ki [9] is reported as 1.58 µM (active).
In the case of `Cc1nn(-c2ccccc2)c(Cl)c1/C=N/Nc1ccc(S(=O)(=O)Nc2ccccc2C(=O)O)cc1[N+](=O)[O-]`, the IC50 (Estrogen receptor) is reported as 6.84 µM (active), the IC50 (Nonstructural protein 1) is reported as 67.6 µM (active) and the IC50 (Estrogen receptor beta [10]) is reported as > 50 µM (not active). The IC50 (Genome polyprotein) was 33.1 µM (active), the EC50 (Streptococcus) was 4.27 µM (active) and the IC50 (Estrogen receptor beta [11]) was 7.26 µM (active). The EC50 [12] was 1.86 µM (active) and the IC50 [13] was 4.29 µM (active).
In the case of `Cc1ccccc1-c1cccc2nccn12`, the Ki (LIM domain kinase 1) is reported as 79.4 µM (active), the Ki [14] is reported as 15.8 µM (active) and the Ki [15] is reported as 63.1 µM (active). For the same molecule, the Ki [16] was 79.4 µM (active), the Ki [17] was 12.6 µM (active) and the Ki [18] was 39.8 µM (active).
